# Entries after “also recorded” stand apart in the source; their conditions may differ.
# What was measured:
# [1] = serum/blood ionized Ca2+ in rats; format: in vivo, rat
# Description: Compounds shown to activate the bovine parathyroid cell calcium receptor in vitro were tested for hypocalcemic activity in vivo. Male Sprague-Dawley rats (200 g) were maintained on a low calcium diet for one week prior to receiving test substance or vehicle as control. Blood was collected from the tail vein three hours after the intraperitoneal administration of NPS 467. […] Serum total calcium, albumin and phosphate were measured by techniques well known in the art.
# Rats (male, Sprague-Dawley, 250-300 g) were fed standard rat chow and fasted overnight prior to the experiment. NPS R-467 was suspended in corn oil and administered as a single oral dose through a gavage needle. Three hours later a sample of blood was taken from the tail vein and assessed for ionized Ca^2+ levels.
# [2] = molecular target: T1, human parathyroid cell calcium receptor (pHuPCaR 5.2, pHuPCaR 4.0) (Homo sapiens, UniProt P41180); assay: Cl- current in Xenopus oocytes expressing cloned human parathyroid calcium receptor; format: cell-based; conditions: for concentrations evoking increases in Cl- current: 0.3 mM extracellular Ca2+; for response in the absence of extracellular Ca2+: no extracellular Ca2+
# T1 sequence (P41180 with tags, fused parts or gaps INS536PLTFVLSVLQ/Q926R/E1011Q): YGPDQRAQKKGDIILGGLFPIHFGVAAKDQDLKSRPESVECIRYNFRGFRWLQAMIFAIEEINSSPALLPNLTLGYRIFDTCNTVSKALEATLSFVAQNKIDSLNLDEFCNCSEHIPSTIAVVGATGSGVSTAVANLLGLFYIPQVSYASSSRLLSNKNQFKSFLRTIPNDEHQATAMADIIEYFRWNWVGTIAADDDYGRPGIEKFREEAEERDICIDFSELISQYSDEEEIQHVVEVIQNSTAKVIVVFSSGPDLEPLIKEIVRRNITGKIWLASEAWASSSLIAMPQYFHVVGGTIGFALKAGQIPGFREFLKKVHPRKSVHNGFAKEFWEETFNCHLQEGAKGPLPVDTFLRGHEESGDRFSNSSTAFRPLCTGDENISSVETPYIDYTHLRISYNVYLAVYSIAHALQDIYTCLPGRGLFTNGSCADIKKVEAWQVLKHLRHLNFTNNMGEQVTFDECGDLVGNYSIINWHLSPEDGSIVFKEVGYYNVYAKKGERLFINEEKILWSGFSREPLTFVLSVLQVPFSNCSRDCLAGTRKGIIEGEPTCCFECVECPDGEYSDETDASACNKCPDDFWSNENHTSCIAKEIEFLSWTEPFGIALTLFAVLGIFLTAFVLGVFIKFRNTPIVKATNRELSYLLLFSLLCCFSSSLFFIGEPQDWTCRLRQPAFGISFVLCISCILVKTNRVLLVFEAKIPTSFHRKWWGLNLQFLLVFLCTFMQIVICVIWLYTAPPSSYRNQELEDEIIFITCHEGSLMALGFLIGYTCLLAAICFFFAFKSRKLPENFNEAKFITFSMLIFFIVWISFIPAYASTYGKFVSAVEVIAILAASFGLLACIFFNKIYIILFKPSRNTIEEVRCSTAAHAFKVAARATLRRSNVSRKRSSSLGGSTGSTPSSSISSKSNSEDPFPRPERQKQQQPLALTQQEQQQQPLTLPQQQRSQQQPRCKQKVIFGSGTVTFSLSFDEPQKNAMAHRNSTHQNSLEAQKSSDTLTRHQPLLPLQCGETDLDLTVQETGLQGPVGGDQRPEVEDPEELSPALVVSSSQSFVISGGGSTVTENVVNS
# Description: Representative cDNA inserts for both size classes were subcloned into the plasmid vector pBluescript SK. Linearization followed by in vitro transcription using T7 RNA polymerase produced cRNA transcripts. The cRNA transcripts were injected into Xenopus oocytes (150 ng/μl RNA; 50 nl/oocyte) for functional analysis. Following incubation periods of 2-4 days, the oocytes were assayed for the presence of functional calcium receptors. Both clone types gave rise to functional calcium receptors as assessed by the stimulation of calcium-activated chloride currents upon addition of appropriate calcium receptor agonists. […] Thus, both clones encode a functional, human parathyroid cell calcium receptor.
# Xenopus oocytes were injected with pHuPCaR 5.2, the 5.2 Kb cDNA encoding a parathyroid cell calcium receptor derived from a human parathyroid cell adenoma. (See Example 27.) After two to three days, Cl^- currents were measured in the oocytes using a two-electrode voltage clamp.
# C-cell calcium receptor = molecular target: T2, C-cell calcium receptor (Rattus norvegicus, UniProt P48442); assay: increase in [Ca2+]i in C-cell line 44-2; format: cell-based; conditions: 1 mM extracellular Ca2+
# T2 sequence (P48442 20-1079): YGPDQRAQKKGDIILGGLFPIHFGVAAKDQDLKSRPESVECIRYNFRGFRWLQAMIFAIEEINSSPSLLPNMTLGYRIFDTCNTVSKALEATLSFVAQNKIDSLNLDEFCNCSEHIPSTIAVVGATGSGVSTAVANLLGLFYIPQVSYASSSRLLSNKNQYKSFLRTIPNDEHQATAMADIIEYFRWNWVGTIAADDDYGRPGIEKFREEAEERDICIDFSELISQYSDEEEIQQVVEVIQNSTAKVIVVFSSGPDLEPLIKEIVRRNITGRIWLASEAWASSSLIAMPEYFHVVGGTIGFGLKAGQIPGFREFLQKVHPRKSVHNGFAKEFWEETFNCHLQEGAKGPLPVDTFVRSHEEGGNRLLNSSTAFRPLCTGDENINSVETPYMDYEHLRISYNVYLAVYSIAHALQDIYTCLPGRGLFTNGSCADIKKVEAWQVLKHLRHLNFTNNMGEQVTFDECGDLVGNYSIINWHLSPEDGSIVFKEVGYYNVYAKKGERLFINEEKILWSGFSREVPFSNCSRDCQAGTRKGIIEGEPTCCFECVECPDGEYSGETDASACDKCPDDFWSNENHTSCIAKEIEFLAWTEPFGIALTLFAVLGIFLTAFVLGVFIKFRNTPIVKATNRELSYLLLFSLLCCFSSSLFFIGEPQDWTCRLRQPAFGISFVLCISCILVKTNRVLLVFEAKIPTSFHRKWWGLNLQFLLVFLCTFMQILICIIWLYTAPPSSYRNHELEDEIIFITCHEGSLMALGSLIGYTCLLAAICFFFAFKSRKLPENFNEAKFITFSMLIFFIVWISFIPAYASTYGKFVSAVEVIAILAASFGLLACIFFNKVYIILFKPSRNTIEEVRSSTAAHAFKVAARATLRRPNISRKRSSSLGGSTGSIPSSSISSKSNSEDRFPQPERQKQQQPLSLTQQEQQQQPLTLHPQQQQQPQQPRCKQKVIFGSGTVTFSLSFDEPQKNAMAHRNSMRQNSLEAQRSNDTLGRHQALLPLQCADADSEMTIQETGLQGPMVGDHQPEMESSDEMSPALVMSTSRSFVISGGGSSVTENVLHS
# Source text: C-cells appear to express a calcium receptor that is structurally similar to that present on parathyroid cells (see Example 31). […] Thus, compounds in this structural series appear to activate the C-cell calcium receptor.
# [3] = hypocalcemic response in parathyroidectomized rats; format: in vivo, rat; conditions: NPS R-467 10 mg/kg i.p., 6 hours; NPS R-568 oral
# Source text: To determine the primary target tissue upon which NPS R-467 acts to cause a hypocalcemic response, the parathyroid glands in rats were surgically removed. Animals receiving a total parathyroidectomy become hypocalcemic and are largely dependent upon dietary calcium to maintain serum Ca^2+ homeostasis.
# [4] = 10 mg/kg i.p., single dose, normal diet
Compound,"decrease in serum ionized Ca2+ from the control level [1, 4] [%]","time to maximal fall in serum ionized Ca2+ [1, 4] [h]","serum ionized Ca2+, oral ([1]; single oral dose in corn oil, 3 hours)",activation of oocyte-expressed human receptor [2],increase in [Ca2+]i in 44-2 C-cells (C-cell calcium receptor),serum ionized Ca2+ in parathyroidectomized rats [3],"plasma Ca2+ ([1]; p.o., rats)",effect on extracellular Ca2+ concentration-response curve [2],concentrations evoking increases in Cl- current [2] [µM],response in the absence of extracellular Ca2+ [2]
"COc1cccc([C@@H](C)NCCCc2ccccc2)c1 (single isomer, unassigned) [NPS R-467]",22,≤ 1,lowers serum ionized calcium; also recorded: dose-dependent reduction in serum levels of ionized,activated the oocyte-expressed receptor at about the same concentrations,concentration-dependent increase,did not cause any change in serum ionized,–,–,–,–
"COc1cccc([C@@H](C)NCCCc2ccccc2Cl)c1 [NPS R-568, (R)-(+)-N-[3-(2-chlorophenyl)propyl]-amethyl-α-3-methoxybenzylamine]",–,–,–,activated the oocyte-expressed receptor at about the same concentrations,concentration-dependent increase,fails to elicit a hypocalcemic response,"rapid, dose-dependent decrease",shifted the concentration-response curve to the left,3 to 30,abolished
NCCCNCCCCNCCCNCCCNCCCNC(=O)Cc1c[nH]c2ccccc12 [NPS 019],–,–,–,–,–,–,–,–,3 to 30,persisted
